Test system: Male beagle dogs
Experiment: canine telemetry protocol, blood pressure reduction efficacy
Type: in vivo
Conditions: change from baseline, 3 mg/kg oral gavage; for ΔPP (mmHg) 1-6 h / ΔPP (mmHg) 6-12 h / ΔPP (mmHg) 12-18 h: pulse pressure; for ΔSBP (mmHg) 1-6 h / ΔSBP (mmHg) 6-12 h / ΔSBP (mmHg) 12-18 h: systolic blood pressure
Experimental: Compounds of the invention were evaluated for blood pressure reduction efficacy using the following canine telemetry protocol described below.
Male beagle dogs (approximately 1-3 years old) with a body weight of between 10 and 16 kg were surgically implanted with DSI radiotelemetry devices (model: TL11M2-D70-PCT). Briefly, under an inhalant anesthesia, isoflurane/oxygen mixture (1-3.5%/to effect), the body of the telemetry device was positioned and secured intra-abdominally. Subsequently, the arterial catheter of the telemetry device was passed subcutaneously to the inguinal area and introduced into the femoral artery and advanced to the level of the descending aorta. The catheter was secured with 2-0 silk ligatures. The muscle and underlying fascia was closed over the catheter using absorbable suture and the skin was closed using non-absorbable suture. The animals were allowed a minimum recovery period of 2 weeks between surgery and the evaluation of test compounds.
Compound evaluation consisted of a 3 day paradigm at a 3 mg/kg dose. On the first day, no compounds were administered during a 24 hour period of baseline data collection. Blood pressure and heart rate data were collected continuously for one minute periods at 10 minute intervals. On the days of compound administration half the animals received test article with the other half receiving the vehicle used for compound formulation. All test materials were administered by oral gavage in a volume of 1 mL/kg. Data are expressed either as raw values (mm Hg or beats per minute) or as the change from baseline (average value for about 12 hours in low activity period prior to dosing). Change is SBP (systolic blood pressure) and PP (pulse pressure) over time is shown below: […]

Compound | ΔPP (mmHg) 1-6 h [mmHg] | ΔPP (mmHg) 6-12 h [mmHg] | ΔPP (mmHg) 12-18 h [mmHg] | ΔSBP (mmHg) 1-6 h [mmHg] | ΔSBP (mmHg) 6-12 h [mmHg] | ΔSBP (mmHg) 12-18 h [mmHg]
CN(/[N+]([O-])=N/OC1CCC(F)(F)CC1)C(C)(C)C [Example 9, O^2-(4,4-difluorocyclohexyl) 1-(N-tert-butyl-N-methylamino)diazen-1-ium-1,2-diolate] | −7 | −8 | −8 | −8 | −12 | −13
O^2-(trans-4-phenylcyclohexyl) 1-(N-tert-butyl-N-methylamino)diazen-1-ium-1,2-diolate [Example 33] | −7 | −12 | −11 | −9 | −15 | −9
CN(/[N+]([O-])=N/OC1CCCCC1)C(C)(C)C [Example 2] | −9 | −11 | −12 | −11 | −9 | −9
O^2-(trans-4-hydroxy-4-phenylcyclohexyl) 1-(N-tert-butyl-N-methylamino)diazen-1-ium-1,2-diolate [Example 19] | −7 | −9 | −9 | −11 | −12 | −15
